Assay results taken from patent US20240368556A1, “LIVER ORGANOID MODEL FOR HYPERBILIRUBINEMIA AND METHODS OF MAKING AND USING SAME” (CHILDREN’S HOSPITAL MEDICAL CENTER, priority 2021, published 2024).
Entries after “also recorded” stand apart in the source; their conditions may differ. Blank lines part the entries; values can stand above or below the molecule they belong to.

Tests used:
Type in all cases: cell-based, human
CYP3A4 = CYP3A4 activity assay (P450-Glo) after rifampicin
Method: (§1) CYP3A4 and CYP1A2 assays were performed by harvesting HLOs, washing in PBS, plating them into a 96 well assay plate, and treating them with rifampicin and omeprazole, respectively, for 24 hours. The assays were then performed using P450-Glo CYP3A4 and CYP1A2 Assay (Promega) and normalized using CellTiter-Glo Luminescent Cell Viability Assay according to manufacturer instructions.

CYP1A2 = CYP1A2 activity assay (P450-Glo) after omeprazole
Method: as §1

liver organoids [1] = experiment: Immunofluorescence of mature liver enzymes and transport proteins; details: 1 mg/L bilirubin (FIGS. 1F-H)
Method: For maturation induction in HLOs, the day 15 organoids were fed with complete HCM with supplements in addition to low dose bilirubin (1 mg/L). This treatment was continued until day 30 when the organoids were harvested. […] For whole mount immunostains, the organoids were fixed in 4% PFA, permeabilized with 0.1% PBST, blocked with 5% Normal Donkey Serum in 0.1% PBST, and stained with the appropriate primary and secondary antibodies. The images were captured on the Nikon A1 inverted confocal microscope.

liver organoids [2] = experiment: Hyperbilirubinemia induction: HLOs treated with varying bilirubin concentrations (brightfield); details: bilirubin 1, 2, 5 or 10 mg/L, 1 and 4 days (FIG. 3B)
Method: (§2) On day 27, the mature organoids were treated with bilirubin (1-10 mg/L), doxycycline (100 ng/mL; added 3 days prior to activate gene expression) and/or additionally with drugs such as hydrocortisone, dexamethasone, ketoconazole and mifepristone (1-2 μM for each) for 5 days and then harvested for downstream assays. Bilirubin assay was performed using a colorimetric kit (ab235627 from Abcam). RNA was isolated using the RNeasy mini kit (Qiagen, Hilden, Germany). Reverse transcription was carried out using the High-Capacity cDNA Reverse Transcription Kit (Thermo Fisher Scientific Inc.) according to manufacturer's protocol. qPCR was carried out using TaqMan gene expression master mix (Applied Biosystems) on a QuantStudio 5 Real-Time PCR System (Thermo Fisher Scientific Inc.). All primers and probe information for each target gene was obtained from the Universal ProbeLibrary Assay Design Center (available on the World Wide Web at lifescience.roche.com/en_us/brands/universal-probe-library.html). Images were captured on the KEYENCE BZ-X710 Fluorescence Microscope (Keyence).

CNS HLOs = experiment: Bilirubin toxicity in Crigler-Najjar syndrome liver organoids (brightfield); details: 10 mg/L bilirubin, inactive UGT1A1 gene (FIG. 3H)
Method: On day 27, the mature organoids were treated with bilirubin (1-10 mg/L), doxycycline (100 ng/mL; added 3 days prior to activate gene expression) and/or additionally with drugs such as hydrocortisone, dexamethasone, ketoconazole and mifepristone (1-2 μM for each) for 5 days and then harvested for downstream assays. […] Images were captured on the KEYENCE BZ-X710 Fluorescence Microscope (Keyence).

liver organoids [3] = experiment: Bilirubin assay measuring unconjugated and conjugated bilirubin in liver organoids; details: liver organoids in 10 mg/L bilirubin; drug 1 or 5 μM (FIG. 4B, 4D)
Method: Bilirubin levels were measured by collecting the supernatant from HLOs treated with bilirubin and serum from rats. The supernatant and serum were assayed with Bilirubin Assay Kit (Total and Direct, Colorimetric) (abcam) and Bilirubin Assay Kit (Sigma-Aldrich) according to manufacturer instructions.

UGT1A1 = experiment: RT-qPCR of UGT1A1 in liver organoids; details: 10 mg/L bilirubin plus drug vs 10 mg/L bilirubin alone (FIG. 4E)
Method: as §2

NRF2 = experiment: RT-qPCR of NRF2 in liver organoids; details: 10 mg/L bilirubin plus drug vs 10 mg/L bilirubin alone (FIG. 4E)
Method: as §2

liver organoids [4] = experiment: RNA sequencing of HLOs; details: 10 mg/L bilirubin and 1 μM mifepristone vs control (FIG. 4F)
Method: RNA was isolated using the RNeasy mini kit (Qiagen). […] All the samples were amplified with TaqMan Gene Expression Assays and normalized with 18S rRNA Endogenous Control. For RNA sequencing, the extracted RNA quality was evaluated with an Agilent 2100 Bioanalyzer (Agilent). A sequence library was prepared using a TruSeq Stranded mRNA kit (Illumina) and sequenced using NovaSeq 6000 (Illumina). Reads were aligned to human genome assembly hg38 and quantified using the quasi-mapper Salmon (v1.8.0). Gene-expression analysis was performed using the R Bioconductor package DESeq2 (v1.36.0). The read count matrix was normalized by size factors, and a variance stabilizing transformation (VST) was applied to the normalized expression data. The data was visualized using clusterProfiler (v.4.4.1) and pheatmap (v1.0.12) packages. […] RNA sequencing parameters were 150 bp paired-end sequencing at a depth of 20M reads per samples. Fastq read files for each sample were obtained and then aligned using Salmon, a quasi-mapping tool that aligns and quantifies transcripts using RNA-seq data. Raw transcript counts and normalized transcripts per million (TPM) values were obtained and analyzed for differential expression with DESeq2. […]

UGT1A1 gene = experiment: ChIP-PCR and ChIP-qPCR of hyperbilirubinemic organoids; details: 10 mg/L bilirubin, 1 μM drug (FIG. 4H)
mGULO organoids = experiment: Survival and morphology of mGULO organoids with doxycycline induction; details: Dox 10, 100, 1000 ng/mL, with bilirubin (FIG. 2O)

CYP3A4 activity (CYP3A4; 1 mg/L bilirubin-treated organoids, after rifampicin, vs untreated control (FIG. 1E)): increased cytochrome activity
CYP1A2 activity (CYP1A2; 1 mg/L bilirubin-treated organoids, after omeprazole, vs untreated control (FIG. 1E)): increased cytochrome activity
Structure (SMILES): C=CC1=C(C)/C(=C/c2[nH]c(Cc3[nH]c(/C=C4\NC(=O)C(C)=C4C=C)c(C)c3CCC(=O)O)c(CCC(=O)O)c2C)NC1=O [bilirubin]
expression of CYP2E1, CYP7A1, MPR1, MRP3, PROX1, OATP2 (immunofluorescence) (liver organoids [1]): expressed mature liver enzymes and transport proteins
organoid morphology and intracellular bilirubin accumulation (liver organoids [2]): significant morphological changes and intracellular accumulation of bilirubin
organoid toxicity in CNS HLOs (CNS HLOs): liver organoid toxicity

Structure (SMILES): CC#C[C@]1(O)CC[C@H]2[C@@H]3CCC4=CC(=O)CCC4=C3[C@@H](c3ccc(N(C)C)cc3)C[C@@]21C [mifepristone]
bilirubin conjugation (unconjugated vs conjugated bilirubin) (liver organoids [3]): improved conjugation and metabolism of bilirubin; also recorded: increased bilirubin conjugation
UGT1A1 expression (UGT1A1): elevated
NRF2 expression (NRF2): improved
gene expression / enriched pathways (liver organoids [4]): enrichment of many genes involved in liver function
silencing of the UGT1A1 gene (MECP2) (UGT1A1 gene): reverses this silencing

Structure (SMILES): C[C@]12CCC(=O)C=C1CC[C@@H]1[C@@H]2[C@@H](O)C[C@@]2(C)[C@H]1CC[C@]2(O)C(=O)CO [hydrocortisone]
bilirubin conjugation (unconjugated vs conjugated bilirubin) (liver organoids [3]): decreased bilirubin conjugation ability
UGT1A1 expression (UGT1A1): depressed

Structure (SMILES): CC(=O)N1CCN(c2ccc(OCC3COC(Cn4ccnc4)(c4ccc(Cl)cc4Cl)O3)cc2)CC1 (stereo not drawn) [ketoconazole]
bilirubin conjugation (unconjugated vs conjugated bilirubin) (liver organoids [3]): improved conjugation and metabolism of bilirubin; also recorded: increased bilirubin conjugation
UGT1A1 expression (UGT1A1): elevated
NRF2 expression (NRF2): improved

CYP3A4 activity (CYP3A4; mGULO organoids, Dox plus low dose bilirubin, rifampicin insult (FIG. 2P)): increased
CYP1A2 activity (CYP1A2; mGULO organoids, Dox plus low dose bilirubin, omeprazole insult (FIG. 2P)): increased
Structure (SMILES): C[C@H]1c2cccc(O)c2C(=O)C2=C(O)[C@]3(O)C(=O)C(C(N)=O)=C(O)[C@@H](N(C)C)[C@@H]3[C@@H](O)[C@@H]21 [doxycycline]
gross morphology of mGULO organoids (mGULO organoids): maintain their gross morphology
